Source: ChEMBL document CHEMBL3351419, “Orally bioavailable 6-chloro-7-methoxy-4(1H)-quinolones efficacious against multiple stages of Plasmodium” (J Med Chem, 2014)

Assays:
Plasmodium falciparum [1] = experiment: Antimalarial activity against multi-drug-resistant Plasmodium falciparum W2 infected in human type A+ erythrocytes assessed as growth inhibition after 72 hrs by SYBR Green I assay; type: functional, organism-based; conditions: W2, 72 h
[2] = Resistance index, ratio of EC50 for multi-drug-resistant Plasmodium falciparum TM90-C2B infected in human type A+ erythrocytes to EC50 for multi-drug-resistant Plasmodium falciparum W2 infected in human type A+ erythrocytes; type: functional
Plasmodium falciparum [3] = experiment: Antimalarial activity against multi-drug-resistant Plasmodium falciparum TM90-C2B infected in human type A+ erythrocytes assessed as growth inhibition after 72 hrs by SYBR Green I assay; type: functional, organism-based
J774 = experiment: Cytotoxicity against mouse J774 cells after 72 hrs by CellTiter 96 assay; type: cell-based; conditions: J774, 72 h
[4] = Cytotoxicity index, ratio of EC50 for mouse J774 cells to EC50 for multi-drug-resistant Plasmodium falciparum TM90-C2B infected in human type A+ erythrocytes; type: toxicity, cell-based; conditions: read-out: Ratio EC50
Plasmodium berghei [5] = experiment: Antimalarial activity against Plasmodium berghei ANKA expressing GFP infected in Balb/c mouse assessed as mouse survival at 50 mg/kg, po qd administered as single dose on day 3 to 5 of exposure measured on day 6 post exposure by in vivo thomson test relative to control; type: functional
Plasmodium berghei [6] = experiment: Antimalarial activity against Plasmodium berghei ANKA expressing GFP infected in Balb/c mouse assessed as inhibition of parasitemia at 50 mg/kg, po qd administered as single dose on day 3 to 5 of exposure measured on day 6 post exposure by in vivo thomson test relative to control; type: functional
Plasmodium berghei [7] = experiment: Antimalarial activity against Plasmodium berghei ANKA expressing GFP infected in Balb/c mouse assessed as inhibition of parasitemia at 10 mg/kg, po qd administered as single dose on day 3 to 5 of exposure measured on day 6 post exposure by in vivo thomson test relative to control; type: functional
Plasmodium berghei [8] = experiment: Antimalarial activity against Plasmodium berghei ANKA expressing GFP infected in Balb/c mouse assessed as mouse survival at 10 mg/kg, po qd administered as single dose on day 3 to 5 of exposure measured on day 6 post exposure by in vivo thomson test relative to control; type: functional
[9] = octanol/water, pH 7.4
Plasmodium berghei [10] = experiment: animal or person; conditions: ANKA, in Mus musculus, read-out: INH

Row | SMILES | EC50 (Plasmodium falciparum [1]) | Ratio EC50 [2] | EC50 (Plasmodium falciparum [3]) | EC50 (J774) | selectivity ratio [4] | mouse survival time at 50 mg/kg (Plasmodium berghei [5]) | inhibition in vivo at 50 mg/kg (Plasmodium berghei [6]) | inhibition in vivo at 10 mg/kg (Plasmodium berghei [7]) | survival time at 10 mg/kg (Plasmodium berghei [8]) | logD [9] | inhibition in vivo at 50 mg/kg (Plasmodium berghei [10])
1 | COc1cc2[nH]c(C)c(-c3cc4ccccc4s3)c(=O)c2cc1Cl | 71.8 nM | 0.35 | 24.8 nM | > 28100 nM | > 1130 | – | – | – | – | – | –
2 | COc1cc2[nH]c(C)c(-c3ccc(C)cc3)c(=O)c2cc1Cl | 24.5 nM | 0.3 | 7.33 nM | > 31900 nM | > 4350 | – | – | – | – | – | –
3 | COc1cc2[nH]c(C)c(-c3ccc(N(C)C)cc3)c(=O)c2cc1Cl | 60.7 nM | 0.25 | 15.3 nM | – | > 1900 | – | – | – | – | – | –
4 | COc1cc2[nH]c(C)c(-c3ccoc3)c(=O)c2cc1Cl | 13.3 nM | 0.14 | 1.85 nM | > 34500 nM | > 18600 | – | – | – | – | – | –
5 | COc1cc2[nH]c(C)c(-c3ccc(O)cc3)c(=O)c2cc1Cl | 2860 nM | 0.16 | 467 nM | > 31700 nM | > 67.8 | – | – | – | – | – | –
6 | COc1cc2[nH]c(C)c(-c3ccccn3)c(=O)c2cc1Cl | 928 nM | 0.23 | 214 nM | > 33300 nM | > 156 | – | – | – | – | – | –
7 | COc1cc2[nH]c(C)c(-c3ccc(S(=O)(=O)N(C)C)cc3)c(=O)c2cc1Cl | 1890 nM | 0.08 | 152 nM | > 24600 nM | > 162 | – | – | – | – | – | –
8 | CCOc1cc(-c2c(C)[nH]c3cc(OC)c(Cl)cc3c2=O)ccc1F | 194 nM | 0.13 | 25.8 nM | > 27600 nM | > 1070 | – | – | – | – | – | –
9 | COc1cc2[nH]c(C)c(-c3ccc(N(C)C)nc3)c(=O)c2cc1Cl | 748 nM | 0.12 | 91.1 nM | > 29100 nM | > 319 | 0 days | 22% | < 1% | 0 days | – | –
10 | COc1cc2[nH]c(C)c(-c3ccc(C(C)C)cc3)c(=O)c2cc1Cl | 6.65 nM | 0.4 | 2.67 nM | > 29300 nM | > 11000 | – | – | – | – | – | –
11 | COc1cc2[nH]c(C)c(-c3cc4ccccc4o3)c(=O)c2cc1Cl | 133 nM | 1.04 | 138 nM | > 29400 nM | > 214 | – | – | – | – | – | –
12 | COc1cc2[nH]c(C)c(-c3ccc(C(=O)O)cc3)c(=O)c2cc1Cl | 517 nM | 0.14 | 73.1 nM | > 29100 nM | > 398 | – | – | – | – | – | –
13 | Cn1c(=O)c2[nH]cnc2n(C)c1=O.O [THEOPHYLLINE] | – | – | – | – | – | – | – | – | – | -5 | –
14 | COC(=O)c1ccc(-c2c(C)[nH]c3cc(OC)c(Cl)cc3c2=O)cc1 | 22.5 nM | 1.16 | 26 nM | > 27900 nM | > 1080 | – | – | – | – | – | –
15 | COc1cc2[nH]c(C)c(-c3ccccc3C)c(=O)c2cc1Cl | 5.83 nM | 0.69 | 4.03 nM | > 31900 nM | > 7910 | 0 days | 41% | 17% | 0 days | – | 9%
16 | COc1cc2[nH]c(C)c(-c3c(C)noc3C)c(=O)c2cc1Cl | 1060 nM | 0.59 | 629 nM | > 31400 nM | > 49.9 | – | – | – | – | – | –
17 | COc1cc2[nH]c(C)c(-c3ccccc3OC(F)(F)F)c(=O)c2cc1Cl | 443 nM | 4.32 | 1910 nM | > 30200 nM | > 15.8 | – | – | – | – | – | –
18 | COc1cc2[nH]c(C)c(-c3ccc(OC)c(F)c3F)c(=O)c2cc1Cl | 157 nM | 2.57 | 403 nM | > 27300 nM | > 67.8 | – | – | – | – | – | –
19 | COc1cc2[nH]c(C)c(-c3ccc(C(C)=O)cc3)c(=O)c2cc1Cl | 777 nM | 0.06 | 48.4 nM | > 29300 nM | > 605 | – | – | – | – | – | –
20 | COc1cc2[nH]c(C)c(-c3ccco3)c(=O)c2cc1Cl | 34.2 nM | 0.25 | 8.43 nM | > 34500 nM | > 4100 | 0 days | < 1% | < 1% | 0 days | – | –
21 | COc1cc2[nH]c(C)c(-c3ccccc3CO)c(=O)c2cc1Cl | 258 nM | 1.08 | 277 nM | > 30300 nM | > 109 | – | – | – | – | – | –
